Laboratory results: patent US20180296507A1, “REDOX-ACTIVATED GLYCOCONJUGATED PROCHELATORS” (ARIZONA BOARD OF REGENTS ON BEHALF OF THE UNIVERSITY OF …, priority 2013, published 2018)
“And” between values parts separate entries of the source, which are not always exact repeats. Equal entries are not always repeated. “Also recorded” adds a separate entry of the source.

Key:
[1] = test system: intracellular iron; experiment: Calcein-based iron displacement assay in suspended Jurkat cells; format: cell-based
Excerpt: In some embodiments, intracellular activation and iron chelation may be investigated using a calcein-based iron displacement assay. This assay may confirm the activation of the prochelators for iron scavenging, and may also indicate the timeframe for cellular entry and iron binding. […] Data such as this may be collected for particular glycoconjugates to assess the duration of uptake and in particular to determine differences among systems carrying different connectivity (e.g., linker, position of glucose substitution) between the sugar and the prochelator units.

[2] = test system: intracellular iron; experiment: EPR experiments in whole leukemia cells; format: cell-based
Excerpt: Chelators (e.g., TC1SH, TC2SH, TC3SH) are released upon reduction of the disulfide bond. The reduced species (e.g., TC1SH, TC2SH, TC3SH) are tridentate iron chelators forming complexes of 2:1 ligand-to-metal stoichiometry. Magnetic measurements and X-ray crystallographic data on the resulting iron complexes (see FIG. 4, BF4^− counterion not shown) indicate that these chelators stabilize iron centers as low-spin Fe(III) species. […] The present invention is not limited to chelators that stabilize iron centers as low-spin Fe(III) species.

[3] = Aqueous solubility by UV-Vis absorption spectroscopy of saturated buffer solutions; format: physicochemical; conditions: 5.0 mM TRIS buffer, pH 7.40; average ± SD of triplicate
Experimental: Solubility measurements. The effect of the sugar motif on the aqueous solubility of the synthesized prochelators was investigated by UV-Visible absorption spectroscopy. Determination of molar extinction coefficients of each compound in aqueous buffer (5.0 mM TRIS, pH 7.40) allowed measurement of their concentration at saturation. Stock solutions were prepared in DMSO and diluted in TRIS buffer (5.0 mM, pH 7.40). Buffer solutions containing identical amounts of DMSO (0.3% v/v) were used to obtain blank spectra. […] For solubility measurements, saturated solutions were centrifuged for 20 minutes at 3,200 rpm to remove any precipitate and concentrations were determined by UV-Vis spectroscopy. […] Measurements were done in a set of triplicates.

[4] = test system: Caco-2 cells; experiment: MTT cytotoxicity assay in Caco-2 cells; format: cell-based, human; conditions: for IC50: 72 h exposure, average ± SD of triplicate
Experimental: (§1) Cell culture. Caco-2 (ATCC® HTB-37™) colorectal adenocarcinoma and CCD-18Co (ATCC® CRL-1459™) normal colon fibroblasts were cultured under a 5% CO2 humidified atmosphere at 37° C. in Eagle's Minimal Essential Medium (EMEM) supplemented with 10% fetal bovine serum (FBS), glutamine (2 mM), sodium pyruvate (1 mM), sodium bicarbonate (1.5 g/L), penicillin (100 units/mL), streptomycin (100 μg/mL) and human holo-transferrin (1.25 μM (1 mg/10 mL) prior to use. Flow cytometric analysis was performed at the University of Arizona Cytometry Core Facility (Arizona Cancer Center/Arizona Research Laboratories) using a FACSCanto II flow cytometer (BD Biosciences, San Jose, Calif.) equipped with an air-cooled 15-mW argon ion laser tuned to 488 nm. List mode data files consisting of 10,000 events gated on FSC (forward scatter) vs SSC (side scatter) were acquired and analyzed using CellQuest PRO software (BD Biosciences, San Jose, Calif.). Appropriate electronic compensation was adjusted by acquiring cell populations stained with each dye/fluorophore individually, as well as an unstained control.
(§2) Cytotoxicity assays. The cytotoxicity of the prochelators were assessed using MTT (3-(4,5-dimethylthiazol-2-yl)-2,5-diphenyl-tetrazolium bromide) assays after 72-hour incubations (Table 2). In all cases, the prochelator conjugates are more toxic (lower IC50 values) in the malignant Caco-2 cells than in the normal CCD18-co cells.
(§3) MTT (3-(4,5-dimethylthiazol-2-yl)-2,5-diphenyltetrazolium bromide) viability assays were conducted by standard methods with slight modifications. Cells were seeded at 4000 cells per well for Caco-2 and 10,000 cells per well for CCD18-co and allowed to attach for 24 h. Test compounds dissolved in DMSO were diluted in EMEM to the specified concentration (with final DMSO concentration limited to 0.1%). Cells were incubated in the presence of the test compounds for 72 h, then the MTT solution (4 mg/mL, 10 μL) was added to each well and incubated for 4 h. Following media removal, DMSO (100 μL) was added to each well to dissolve the purple formazan crystals and the plates were incubated for an additional 30 minutes. Absorption at 560 nm was recorded and data were analyzed using logarithmic fits to obtain IC50 values. Each experiment was conducted in triplicate, and values are given as averages plus/minus standard deviation.

[5] = test system: CCD18-co cells; experiment: MTT cytotoxicity assay in CCD18-co cells; format: cell-based, human; conditions: 72 h exposure, average ± SD of triplicate
Experimental: as §1, §2, §3

[6] = test system: glucose transporters; experiment: Competition assay with 2-NBDG in MDA-MB-231 cells (flow cytometry); format: cell-based; conditions: compound 25-100 μM, 30 min, 2-NBDG 200 μM
Excerpt: (§4) The competition assays used fluorescently labeled glucose bioprobe 2-(N-(7-nitrobenz-2-oxa-1,3-diazol-4-yl)amino)-2-deoxyglucose (2-NBDG). […] Without wishing to limit the present invention to any theory or mechanism, it is believed that the glycoconjugation may offer an advantageous increase in cancer cell specificity due to the conjugate being a substrate for the GLUT1 transporter protein and thus taking advantage of its overexpression in cancer cells as compared to normal cells.

[7] = test system: glucose transporters; experiment: Competition assay of transporter-mediated uptake with 2-NBDG in Caco-2 cells (flow cytometry); format: cell-based, human; conditions: compound 50 μM; for Competition with 2-NBDG (decrease in intracellular fluorescence): CACO-2 cells, 30 min, 2-NBDG 200 μM; for Competition with 2-NBDG for transporter-mediated uptake: Caco-2 cells, 2-NBDG 100 μM, 40 min
Experimental: Co-treatment with glucose (10 mM) and glucose transporter (GLUT1) inhibitor phloretin (100 μM, 30 min) are employed as positive controls. Experiments were conducted in triplicate and values shown are averages±standard deviation. Statistical analysis: ** p<0.01, *** p<0.001 as compared to the control.
as §4
Competition assay of transporter-mediated uptake. Caco-2 cells were plated at 1×10^6 cells per well in 6-well plates and allowed to adhere for 36 hours. Growth media were then removed and cells were incubated for 12 hours in glucose-free EMEM. […] As a positive control, after starvation cells were treated with 100 μM phloretin for 30 minutes, then treated with EMEM containing 100 μM 2-NBDG for 40 minutes. Cells were washed with PBS (1 mL) and detached by addition of Trypsin-EDTA (400 μL) and incubation for 3 minutes at 37° C. Following addition of EMEM (1 mL), the cell suspensions were centrifuged at 125 g for 10 minutes. The resulting pellets were suspended in PBS (0.5 mL) and transferred to a flow cytometry tube. Cells were stored on ice and analyzed by flow cytometry within 1 hour. Data are obtained as the average of three sets of geometric means of the flow cytometry histogram, and plotted as the percent difference from the control plus/minus the standard deviation between three values.

Structure (SMILES) | IC50 ([4]; MTT) | IC50 [5] | Competition with 2-NBDG for transporter-mediated uptake [7] | also measured
S=C(N/N=C/c1ccccc1SSc1ccccc1/C=N/NC(=S)Nc1ccccc1)Nc1ccccc1 [(TC1S)2] |  |  |  | Timeframe of passive diffusion, activation and iron coordination [1]: within minutes; Intracellular reduction/activation and formation of low-spin Fe(III) complex [2]: direct evidence for both the reduction/activation
COc1ccc(NC(=S)NN=Cc2ccccc2SSc2ccccc2C=NNC(=S)Nc2ccc(OC)cc2)cc1 [(TC4-S)2] |  |  |  | Concentration at saturation [3]: <5 μM and <3 mg/L
COC(=O)CCSSc1ccccc1C=NNC(=S)Nc1ccc(OC)cc1 [ATC4] | 8.1 ± 0.2 µM | 27.5 ± 0.4 µM |  | Times more toxic in Caco-2 cells than in CCD18-co cells ([4]; MTT, 72 h): 3 times; Therapeutic Index ([4]; ratio of IC50 in normal CCD18-co cells relative to malignant Caco-2 cells): 3.4 ± 0.1; Concentration at saturation [3]: 11 ± 1 μM and 4.7 ± 0.5 mg/L
O=C(CCSSc1ccccc1C=NNC(=S)Nc1ccccc1)NC1C(O)OC(CO)C(O)C1O (stereo not shown) [Compound G2TC1] |  |  |  | Uptake of 2-NBDG in the presence of compound [6]: decreased uptake of the fluorescent glycoconjugate
O=C(CCSSc1ccccc1C=NNC(=S)Nc1ccccc1)OCC1OC(O)C(O)C(O)C1O (stereo not shown) [Compound G6TC1] |  |  |  | Competition with 2-NBDG (decrease in intracellular fluorescence) [7]: better competitors of 2-NBDG; also recorded: over three times the decrease due to G2TC1
COc1ccc(NC(=S)NN=Cc2ccccc2SSCCC(=O)OCC2OC(O)C(O)C(O)C2O)cc1 (stereo not shown) [Compound G6TC4] | 6.9 ± 0.4 µM | 76 ± 2 µM | competes strongly with 2-NBDG for uptake; also recorded: competes aggressively with fluorescent glycoconjugate 2-NBDG | 
O=C(CCSSc1ccccc1C=NNC(=S)Nc1ccccc1)OCC1OC(O)C(O)C(O)C1O (stereo not shown) [Compound M6TC1] |  |  |  | Competition with 2-NBDG (decrease in intracellular fluorescence) [7]: better competitors of 2-NBDG
COc1ccc(NC(=S)NN=Cc2ccccc2SSCCC(=O)OCC2OC(O)C(O)C(O)C2O)cc1 (stereo not shown) [Compound M6TC4] | 10.1 ± 0.3 µM | 62.2 ± 0.1 µM | competed successfully with 2-NBDG | 
COc1ccc(NC(=S)NN=Cc2ccccc2SSCCC(=O)NC2C(O)OC(CO)C(O)C2O)cc1 (stereo not shown) [GA2TC4] |  | 22.5 ± 0.8 µM | did not compete for uptake with 2-NBDG | 
